# Measured values: a melting point compilation (Tetko et al.; mined from patent text by program, amines drawn as free bases though some values may be those of a salt)
row,melting point [°C],SMILES
1,168 to 169,O=C(O)C(=O)c1ccc(OCCOc2ccc3ccccc3c2)c(F)c1
2,66 to 67,CCCCCCCCCCCOc1ccc(O)cc1C=O
3,130 to 132,CCOC(=O)c1c(C)cc2nc(CO)n(-c3ccccc3C)c(=O)c2c1C
4,166 to 167,CN(C(=O)OC(C)(C)C)c1cc(Oc2ccc(-c3ccccc3)cc2)ccc1[N+](=O)[O-]
5,88 to 89,COC(=O)Oc1ccc(OC)c(C=O)c1
6,176 to 178,Cc1csc2nc(=O)n(C)c(-c3ccccc3F)c12
7,93.2,O=C(c1cccc(Cl)c1)c1cc(F)nc2ccccc12
8,114 to 117,CCCCCCCCCCCCNC(=O)c1cc(-c2ccc(OC)cc2)c(OCCO)c(-c2cccc(Cl)c2)c1
9,109 to 110,CC(C)(C)c1cc(C(N)=NO)cc2c1OCC2(C)C
10,165,CSc1c(C=NO)c(=O)n(C)c(=O)n1C
11,112 to 114,CCCOc1ccc(Br)c2c(=O)c3ccccc3sc12
12,103 to 104,CCOC(=O)c1cn(-c2ccc(F)cc2)nc1C
13,179,O=C(c1ccc(O)cc1)c1c(-c2ccccc2)cc2ccccn12
14,96 to 98,O=C(N[C@H]1CCN(CCc2ccc(F)cc2)C1)C(c1cccs1)c1cccs1
15,96 to 98,CCOC(=O)c1c(Br)nn(C)c1S(N)(=O)=O
16,63 to 65,CCN(CC)CCOc1ccc2c(c1)cc(OC)c1cc(OCCN(CC)CC)ccc12
17,90 to 95,COC(=O)C1CN(C(=O)[C@H](CO)NC(=O)OCc2ccccc2)C1
18,93 to 95,COC(=O)CC[C@H](NC(=O)c1cn(C(c2ccccc2)(c2ccccc2)c2ccccc2)c(C#Cc2cnc3nc(NC(=O)C(C)(C)C)nc(O)c3c2)n1)C(=O)OC
19,76 to 82,CCCCCCCCCCCCCCCCCC(=O)NC(C)c1c[nH]c(CCCCCCCCCCCCCCCCC)n1 (configuration not stated)
20,94 to 95.9,COC(=O)NCc1nc(-c2cc(C(C)(C)C)c(O)c(C(C)(C)C)c2)cs1
21,79 to 82,CC(C)CC(Br)C(=O)N1CCC[C@H]1CO (some centres not stated)
22,191 to 193,CCS(=O)(=O)CCC(=O)NNC(=O)N1Cc2ccccc2Oc2ccc(F)cc21
23,155 to 158,Nc1nonc1-c1nc2ccccc2n1COc1ccc(F)cc1
24,72,CC(C)(C)OC(=O)[C@@H](Cc1ccccc1)NC(=O)C1CN(c2ccc(C#N)cc2)C(=O)O1 (some centres not stated)

# The remaining lines, values behind:
row,SMILES,melting point [°C]
1,O=c1c2c(CC3CCOCC3)n[nH]c2c2cccnc2n1-c1ccccc1,228 to 234
2,CCc1nc2c(nc1O)CCCC2,152 to 153
3,O=C(O)c1ccccc1-c1nnc(-c2cccc(C(F)(F)F)c2)o1,141 to 159
4,CC(C)c1cccc(C(C)C)c1NS(=O)(=O)CC(=S)Oc1c(C(C)C)cccc1C(C)C,169 to 171
5,COCNC(=O)C1CN(C(c2ccccc2)c2ccccc2)C1,103 to 106
6,COC(=O)c1ccc(CC(C)NCC(O)c2ccc(O)c(CO)c2)c(F)c1 (configuration not stated),97 to 100
7,CCOC(C#N)Cc1ccc(O)c(N)c1 (configuration not stated),114 to 115
8,O=[N+]([O-])c1cccc(/C=C/c2nc(C3CCCCCC3)cs2)c1,60
9,"O=C1NC(=O)C(=Cc2ccc3c(c2)CCC(Cc2ccccc2)O3)S1 (single isomer, unassigned; (-))",255
10,CCN(C)C(=O)N(C)C(=O)Nc1ccccc1,88.5 to 90.5
11,CC1CC2=C(CCC(Cc3ccc(O)cc3)C2)NC1=O (configuration not stated),230 to 235
12,Cc1ccc(-c2[nH]c(-c3ccc([N+](=O)[O-])cc3)nc2C(=O)Nc2nccs2)cc1,256 to 258
13,O=C(CC1CCCCC1)c1c(O)c2cccnc2n(-c2ccccc2)c1=O,231 to 233
14,CC(C)(C)OC(=O)c1ncn2c1[C@@H]1CCCN1C(=O)c1c(Cl)cccc1-2,216 to 217
15,CCC(CC)Nc1c([N+](=O)[O-])cc(C)c(CO)c1[N+](=O)[O-],51 to 54
16,COc1ccc2[nH]c(-c3cccc(F)c3)cc(=O)c2c1OP(=O)(O)O,179 to 181
17,C=CCNC(=Nc1ccc(-c2c[nH]cn2)cc1)S(=O)(=O)O,183 to 184

row,SMILES,melting point [°C]
1,CCC(CC)CC(NC(=O)COC)C1(c2ccc(Cl)c(Cl)c2)CCC1 (configuration not stated),72 to 74
2,CC(C)Cn1c(=O)n(C)c(=O)c2c(S(=O)(=O)N3CC[C@@H](O)C3)c(Cc3cccnc3)sc21,161 to 162
3,COc1ccc(CC(N)=O)cc1C(=O)NCc1ccc(C(F)(F)F)cc1,192 to 193
4,Cn1nc2c(-c3ccc(Cl)cc3Cl)cccc2c1C=CC#N,258 to 259
5,COC(=O)Nc1ccccc1C(=O)Nc1nnn[nH]1,236 to 237
6,CCOC(=O)c1ccc(OCc2nc(-c3ccco3)oc2C)c(OC)c1,133 to 134
7,O=Cc1cc(Br)cnc1N1CCC(CO)C1 (configuration not stated),84 to 85.5
8,COc1cc(OC)c(C2=NC(NC(=O)Nc3cccc(C)c3)C(=O)N(C)c3ccccc32)c(OC)c1 (configuration not stated),240
9,CNC(=S)C1(c2cnc3ccccc3c2)CCCCC1=CC=O (configuration not stated),149 to 151
10,CSc1[nH]c2cccc3c2c1CC1C3CC(C)CN1C (configuration not stated),201 to 202
11,CCc1c(C(=O)C(N)=O)c2ccsc2n1Cc1ccccc1,90 to 92
12,COC(=O)c1ncn2c1CN=C(c1ccccc1F)c1cc(Cl)ccc1-2,179 to 181
13,COc1ccc(N2CCN(c3cc4c(c(C)c3C)OC(C)(C)C4)CC2)cc1,180 to 182
14,CC(C)(C)NC(=O)c1ccc(I)cc1,149 to 150
15,COc1ccc(Oc2ccccc2-c2cn(C(C)(C)C)c(N)c2C#N)cc1,171 to 172
16,CCCC(Oc1ccccc1Br)C(=O)O (configuration not stated),63
